Measured values reported in ChEMBL document CHEMBL5727219, “Kinase inhibitors and method of treating cancer” (2019).

Test: Inhibition Assay: PLK3 inhibition was determined using the Z-Lyte assay kit from Invitrogen (cat #PV3802). The assay was performed using the recommended manufacturer's instructions with 100 μM ATP and 21 nM PLK3 (Invitrogen cat #PV3812). The % inhibition values were determined according to the manufacturer's directions and IC50 values were obtained using a non-linear 4 point logistic curve fit (XLfit4, IDBS).

IC50, in the range around 2 µM:
COCCN1C(=O)[C@@]2(C[C@H]2c2ccc3c(/C=C/c4ccc(CN(C)C)cc4)n[nH]c3c2)c2ccccc21, COc1ccc2c(c1)[C@]1(C[C@H]1c1ccc3c(-c4cccc(CN5CCCCC5)c4)n[nH]c3c1)C(=O)N2 (relative stereo), COc1ccc2c(c1)[C@]1(C[C@H]1c1ccc3c(-c4cccc(CN5CCOCC5)c4)n[nH]c3c1)C(=O)N2 (relative stereo), COc1ccc2c(c1)[C@]1(C[C@H]1c1ccc3c(-c4cccc(N5CCNCC5)c4)n[nH]c3c1)C(=O)N2 (relative stereo), COc1ccc2c(c1)[C@]1(C[C@H]1c1ccc3c(-c4ccc(CO)cc4)n[nH]c3c1)C(=O)N2 (relative stereo), CCc1ccc2c(c1)[C@]1(C[C@H]1c1ccc3c(-c4cccc(CN5CCOCC5)c4)n[nH]c3c1)C(=O)N2
